# Test results published in patent US20150313801A1, “DETECTION OF CARIOUS DENTIN TISSUE AND REMOVAL THEREOF BY MEANS OF A DENTAL INSTRUMENT” (RLS GLOBAL AB, priority 2012, published 2015).
# Entries after “also recorded” stand apart in the source; their conditions may differ.
# How the values were obtained:
# [1] = system: carious dentin tissue in infected teeth; assay: Staining of caries-infected tooth slices, retention after NaCl and NaOH incubation (Example 2); details: for colouring of tooth slice after NaCl and NaOH treatment (Day 4): after 1 M NaCl and 0.5 M NaOH overnight incubations, visible light, UV or fluorescence microscopy; for mode of binding to carious tissue in infected teeth (conclusion): conclusion of Example 2
# Protocol: Experiments were performed during 4 days. Whole caries infected tooth was added to an ortho acryl gel, which after hardening was used as a holder prior to […] of brand Zaw Micro Tone, German). Slices, having a thickness of 150 μm, were left over night in each colour to be tested (Day one). On the second day, the colours were washed out by rinsing the slices with MQ water and the teeth sections were photographed under either a microscope (6.7×; visible light), in UV (no microscope) or under a fluorescence microscope (100×). Thereafter, an aqueous salt solution (NaCl, 1 M) was added to the slices and incubated overnight. On the third day the slices were washed with MQ water and thereafter the same detection procedures were used as described above. Finally the tooth slices were exposed to an aqueous solution of NaOH (0.5 M) over night. The washing and detection path were then repeated as described previously (Day 4).
# carious dentin tissue [2] = assay: FTIR of carious dentin tissue treated with hydrazine derivative (Example 3); set-up: species or system human
# Excerpt: (§1) Extracted permanent human teeth with no previous dental restorations were selected due to their severe carious tissue status and analysed with FTIR within one week after extraction. The outermost part of the carious dental lesions was removed. The remaining dental carious tissue was divided into two layers; one outer layer with discoloured, soft and infected dental carious tissue and one inner layer that was excavated down to the observed uncoloured hard surface of the remaining healthy dentin controlled by tactile procedures.
# (§2) Healthy dentin tissue and carious dentin tissue from the innermost layer were collected. This healthy dentin tissue sample and carious dentin tissue sample were then each divided into three samples.
# The healthy dentin tissue sample (26 mg) was divided and treated as follows. […] Fluorescence of bounded hydrazine derivate Lucifer Yellow was checked by a UV lamp. […] The third sample, hereinafter denominated sample S3, (7 mg) and the last procedure was treated with NaBH4 (0.5 M in ethanol) and washed with concentrated ethanol to reduce aldehydes and ketones before the addition of an aqueous solution of the hydrazine derivate Lucifer Yellow (13 mM), repeated rinsing with purified water before dried and analysed. […]
# (§3) Thus, in total 6 samples (three from the healthy dentin tissue and three from the carious dentin tissue) were analysed with FTIR within one week after extraction. […]
# healthy dentin tissue [3] = assay: FTIR of healthy dentin tissue treated with hydrazine derivative (Example 3); set-up: species or system human; details: 13 mM aqueous solution overnight, FIGS. 3a and 3c
# Excerpt: as §1, §2
# The healthy dentin tissue sample (26 mg) was divided and treated as follows. […] Fluorescence of bounded hydrazine derivate Lucifer Yellow was checked by a UV lamp. […] The third sample, hereinafter denominated sample S3, (7 mg) and the last procedure was treated with NaBH4 (0.5 M in ethanol) and washed with concentrated ethanol to reduce aldehydes and ketones before the addition of an aqueous solution of the hydrazine derivate Lucifer Yellow (13 mM), repeated rinsing with purified water before dried and analysed.
# as §3
# [4] = system: smear layer on healthy dentin tissue; assay: Staining of drilled dentin of an extracted healthy tooth, smear layer detection (Examples 7 and 8)
# Protocol: An extracted tooth in a healthy state with no previous dental restoration was subjected to drilling with the dental drill Cera Bur at a speed of approximately 1500 rpm. The dental drill Cera Bur was from the company Comet USA LLC and is described in EP 1 849 429. […] Therefore, the tooth was subjected to a high-speed dental drill resulting in a cavity exposing dentin tissue, i.e. a dentin tooth surface. The high speed dental drill was the high-speed dental drill Diamond/Fissure bur OB 301A FG from Plandent Forssbergs Dental, Sweden. […] The staining was visually detected using the instrument PoliLed SN06LP1121 operated at 460-470 nm, Faro.
# The thus formed smear layer stained with Lucifer Yellow was subjected to drilling with the dental drill Cera Bur at a speed of approximately 1500 rpm after which rinsing with water took place. […] It was concluded that the Cera Bur drill removed the smear layer and the resulting dentin tissue was free of smear layer.
# It was concluded that the dentin tooth surface was free of smear layer. […]
# An extracted tooth in a healthy state with no previous dental restoration was subjected to a high-speed dental drill resulting in a cavity exposing dentin tissue, i.e. a dentin tooth surface. […] The staining was visually detected using the instrument PoliLed SN06LP1121 operated at 460-470 nm, Faro. […]
# carious dentin tissue [5] = assay: TOF-SIMS of carious dentin tissue treated with hydrazine derivative (Example 4)
# Protocol: FTIR-ATR and TOF-SIMS analyses were performed on a sample group consisting of carious tissue inner most layers selected and estimated with an exactness of a working dentist. Samples were pooled from 4-6 teeth of inner layer of carious tissue (37 mg). The pooled sample was divided into two subgroups where one was exposed to the hydrazine derivate Lucifer Yellow and further analysed with TOF-SIMS and the other only analysed with FTIR-ATR. An aqueous solution of the hydrazine derivate Lucifer Yellow (1.8 mM) was added to the inner layer carious tissue (19 mg) and after 1 hour exposure washed with an aqueous solution of NaOH (0.5 M) and purified water before dried over vacuum. […] Each sample was attached to double side tape and analysed with a TOF-SIMS instrument (TOF-SIMS IV, CAMECA/IONTOF, GmbH, Germany). Positive secondary ion mass spectra were recorded from different areas of the sample at a size of 200×200 μm^2 and separated in a mass analyser and next compared with known mass spectra from the Ion Spec application (IonTof, GmbH, Germany, ver. 4.1) linked with the TOF-SIMS instrument. Negative secondary ion mass spectra were also recorded but gave no further information. […]
# The upper spectrum was recorded for the sample of carious dentin tissue that had been milled but not subjected to treatment with hydrazine (i.e. the carious dentin tissue reference). […]
# healthy dentin tissue [6] = assay: TOF-SIMS of healthy dentin tissue treated with hydrazine derivative (Example 4); details: TOF-SIMS positive spectra
# carious dentin tissue [7] = assay: Staining of carious dentin of a pre molar tooth combined with high-speed dental drill (Example 6); details: 15-50 mM aqueous solution; Diamond/Fissure bur OB 301A FG; repeated several times
# Protocol: Carious dentin tissue of a pre molar tooth stained with an aqueous solution of the hydrazine derivative Alexa 594 in a concentration of 15-50 mM was subjected to mechanical treatment by a dental drill until no staining could be visually detected. The dental drill was a high-speed dental drill Diamond/Fissure bur OB 301A FG from Plandent Forssbergs Dental, Sweden. […] The stained surface was subjected to drilling until no staining could be visually detected. A dentist examined the surface visually and with a tactile instrument and concluded that the surface was free of caries. […] Again, drilling of the stained surface took place until no staining could be observed. […] Drilling and staining as described above in this example was repeated several times. […] This is in contrast to the successful selective detection and removal of carious dentin tissue using a hydrazine derivative in combination with a chemical means for treatment of carious dentin tissue as described in Example 5.
# carious dentin tissue [8] = assay: Staining of carious dentin of a pre molar tooth combined with Carisolv excavation (Example 5)
# Protocol: Carious dentin tissue of a pre molar tooth was treated with Carisolv® to obtain a cavity and subsequently stained with an aqueous solution of the hydrazine derivative Alexa 594. The concentration of the aqueous solution of the hydrazine derivative Alexa 594 was 15-50 mM. […] Carisolv® was added to the cavity and excavation took place with a hand instrument from Mediteam Dental AB to reach a carious free level. […] A dentist performed tactile control of this surface and confirmed that the surface was free of caries.
# The slightly stained surface was subjected to treatment with Carisolv® followed by excavation with a hand instrument. […] It was therefore concluded that all carious dentin tissue of the tooth had been removed. It was concluded that a hydrazine derivative such as Alexa 594 can be used in combination with a chemical means for carious dentin tissue such as Carisolv® for selective detection and removal of carious dentin tissue.
molecule,measurement,setting,value
NNC(=O)CSCC(=O)Nc1ccc(-c2c3ccc(=O)cc-3oc3cc(O)ccc23)c(C(=O)O)c1 [5-(2-2-hydrazinyl-2-oxoethylthio)acetamido)-2-(3-hydroxy-6-oxo-6H-xanthen-9-yl)benzoic acid],colouring of tooth slice after NaCl and NaOH treatment (Day 4),[1],still contained colourants; also recorded: staining
same,mode of binding to carious tissue in infected teeth (conclusion),[1],bind irreversibly
NNC(=O)NN1C(=O)c2cc(S(=O)(=O)O)cc3c(N)c(S(=O)(=O)O)cc(c23)C1=O [Lucifer Yellow],selectivity carious versus healthy dentin tissue,carious dentin tissue [2]; FTIR conclusion,selectively reacts with carious dentin tissue
same,reaction with carious dentin tissue,"carious dentin tissue [2]; FTIR, peak at 1740 cm-1 no longer present, FIG. 3d",reaction has taken place
same,reaction with healthy dentin tissue,healthy dentin tissue [3],no reaction takes place
same,staining after drilling the smear layer with round type steel dental drill,"[4]; aqueous solution 15-50 mM, 1500 rpm, rinsing with water",resulted in staining
same,staining of smear layer (conclusion),[4]; smear layer formed by high-speed dental drill on healthy tooth,stained this smear layer
same,selectivity carious versus healthy dentin tissue,carious dentin tissue [5]; TOF-SIMS conclusion,selectively reacts with carious dentin tissue
same,bonding to carious dentin tissue,"carious dentin tissue [5]; TOF-SIMS positive spectra, 1.8 mM, 1 hour exposure, NaOH wash",covalently bonded
same,colouring of tooth slice after NaCl and NaOH treatment (Day 4),[1],still contained colourants
same,colouring of tooth slice after NaCl and NaOH treatment (Day 4),[1]; listed as Lucifer Yellow sodium salt,staining
same,mode of binding to carious tissue in infected teeth (conclusion),[1],bind irreversibly
same,reaction with healthy dentin,healthy dentin tissue [6],did not react with healthy dentin
"6-(2-carboxy-5-(hydrazinecarbonyl)phenyl)-1,2,2,10,10,11-hexamethyl-2,10-dihydro-1H-pyrano[3,2-g]diquinoline-11-ium-4,8-diyl)methanesulfonate [Alexa Fluor® 594]",staining after drilling with high-speed dental drill,carious dentin tissue [7],staining always took place
same,detection of carious dentin tissue compared with tactile control by a dentist,carious dentin tissue [8],better and more sensitive
same,staining of carious cavity,"carious dentin tissue [8]; 15-50 mM aqueous solution, cavity obtained with Carisolv",intense dark bluish colour
same,staining of surface judged caries free by tactile control,carious dentin tissue [8]; after Carisolv and hand-instrument excavation,very slight staining
same,staining after second Carisolv treatment and excavation,carious dentin tissue [8]; final staining attempt,no staining took place
same,colouring of tooth slice after NaCl and NaOH treatment (Day 4),[1],still contained colourants
same,colouring of tooth slice after NaCl and NaOH treatment (Day 4),[1]; listed as Alexa Fluor 594 ®,staining
same,mode of binding to carious tissue in infected teeth (conclusion),[1],bind irreversibly
CC(=O)Nc1cc(S(=O)(=O)[O-])cc2cc(S(=O)(=O)[O-])c(/N=N/c3ccccc3)c(O)c12.[Na+].[Na+] [Acid red 1],staining of tooth slice after incubation with 1 M NaCl,"[1]; 150 μm slices left overnight in colour, MQ rinse, 1 M NaCl overnight",only little staining remained
same,colouring of tooth slice after NaCl and NaOH treatment (Day 4),[1],no colouring
same,mode of binding to carious tissue in infected teeth (conclusion),[1],binds in a reversible way
same,effect of rinsing on dye-labelled carious dentin tissue,"[1]; rinsing, general statement of the description",release of the dye bonded to the carious dentin tissue
Cc1c(CC(=O)NN)c(=O)oc2cc(N)c(S(=O)(=O)O)cc12 [Alexa 350],colouring of tooth slice after NaCl and NaOH treatment (Day 4),[1],still contained colourants
same,mode of binding to carious tissue in infected teeth (conclusion),[1],bind irreversibly
